melting point | SMILES
121 to 123 °C | CC(C)(C)S(=O)Cc1cccc(N)c1 (configuration not stated)
173 to 175 °C | Sc1nccn1Cc1ccccn1
161 to 163 °C | N#Cc1cccc(-n2ccnc2)c1
112 to 114 °C | CCNS(=O)(=O)c1ccc(I)cc1
194 to 196 °C | O=C(O)Cc1csc(NC(=O)c2cccs2)n1
169 to 171 °C | NC(=O)C1OCCc2ccccc21 (configuration not stated)
217 to 219 °C | O=C1CN(S(=O)(=O)c2cccc([N+](=O)[O-])c2)CCN1
131 to 133 °C | O=C(O)c1ccccc1C(=O)N1CCCC1
144 to 146 °C | O=C(O)CCN1C(=O)CSc2ccccc21
264 to 266 °C | O=c1[nH]c2ccc(NCc3ccc(Cl)cc3)cc2[nH]1
59 to 61 °C | COc1cccc(Cn2ccc3ccc(N)cc32)c1
173 to 175 °C | O=C(Nc1cccc(Cn2cccnc2=O)c1)OCC(F)(F)F
221 to 223 °C | Nc1nc(-c2cccc(C(F)(F)F)c2)n[nH]1
204 to 206 °C | O=C(O)c1ccc(S(=O)(=O)Nc2ccccc2Oc2ccccc2)cc1
134 to 136 °C | O=C1CCc2cc(F)ccc2N1
170 to 172 °C | CN(C)C(C(=O)O)c1cc(Cl)cc(Cl)c1 (configuration not stated)
194 to 196 °C | O=c1ccc2c(Cl)ccc(Cl)c2[nH]1
134 to 136 °C | CCC(=O)c1cnccc1N
79 to 81 °C | CNC(CO)c1cccc(Br)c1 (configuration not stated)
99 to 101 °C | Nc1ccc(-c2cc[nH]c2)cc1

melting point | SMILES
32 to 34 °C | CCCCCCOc1ccc(CO)cc1
113 to 115 °C | O=C(O)CCNS(=O)(=O)c1cccc(C(F)(F)F)c1
95 to 97 °C | COc1ccc(C2(C(=O)O)CCC2)cc1
142 to 144 °C | Oc1ccc(Oc2ccccn2)cc1
114 to 116 °C | CCN(CCO)c1ccc(NS(=O)(=O)c2ccc(N)cc2)cc1
198 to 200 °C | O=c1[nH]c(-c2ccccn2)no1
92 to 94 °C | Cn1cc(Nc2cccc(N)c2)cn1
163 to 165 °C | O=C(O)C1CCCN(C(=O)Nc2ccccc2)C1 (configuration not stated)
109 to 111 °C | Cc1ccc(NC(=O)OC(C)(C)C)cc1O
133 to 135 °C | O=C(O)c1ccc(Cl)c(S(=O)(=O)NCc2ccco2)c1
201 to 203 °C | Cn1cc(S(=O)(=O)NCC(=O)O)cn1
88 to 90 °C | CON(C)S(=O)(=O)c1cc(N)ccc1Cl
191 to 193 °C | NNC(=O)C(=O)NCc1ccc(Cl)cc1
154 to 156 °C | NC(=O)c1cccc([N+](=O)[O-])c1O
159 to 161 °C | COc1ccc(CCC(=O)Nc2ccccc2C(=O)O)cc1
219 to 221 °C | CCNS(=O)(=O)c1ccc(C(=O)O)cc1
197 to 199 °C | N#Cc1cccnc1NCc1cccc(C(=O)O)c1
208 to 210 °C | CCc1ccc(-c2nn(-c3ccccc3)cc2C(=O)O)cc1
105 to 107 °C | Nc1ncc(Cc2ccc(F)c(F)c2F)s1
147 to 149 °C | O=C(O)C1CCN(c2nc3ccccc3o2)CC1

melting point | SMILES
159 to 161 °C | Nc1ccc2oc(-c3cc(F)ccc3Br)nc2c1
209 to 211 °C | O=C(O)c1cccc(S(=O)(=O)NC2CCCC2)c1
74 to 76 °C | COc1ccc(C#N)cc1N
100 to 102 °C | COc1ccc2c(-c3ccccc3)cc(Cl)nc2c1
153 to 155 °C | O=C(O)CC1c2ccccc2Oc2ccccc21
119 to 121 °C | COc1ccnc(NN)n1
132 to 134 °C | COc1ccc(CC(=O)NN)cc1
169 to 171 °C | NNc1cc(C(F)(F)F)nc(-c2ccccn2)n1
120 to 122 °C | O=C(O)Cn1ncc(=O)c2ccccc21
209 to 211 °C | CCOC(=O)c1ccn2nc3ncccc3c2n1
199 to 201 °C | Nc1cccc(-n2cnnc2)c1
184 to 186 °C | COc1ccc(Nc2nnc(S)s2)cc1
187 to 189 °C | ON=Cc1ccc(OCc2cccnc2)cc1
123 to 125 °C | O=C(O)C1CCCCC1C(=O)N1CCc2ccccc21 (configuration not stated)
71 to 74 °C | Cc1c(Cl)cccc1NC(=O)CCl
67 to 69 °C | CC(C)C(Oc1ccccc1C#N)C(=O)O (configuration not stated)
149 to 151 °C | CCCCc1nc2ccccc2[nH]1
109 to 111 °C | CCOc1ccc(Br)cc1S(=O)(=O)Cl
166 to 168 °C | Nc1cccc(S(=O)(=O)NC2=NCCC2)c1
76 to 78 °C | COc1ccc(CCNC(C)=O)cc1S(=O)(=O)Cl

The remaining lines, values behind:

SMILES | melting point
O=c1[nH]nc2cncc(Cl)n12 | 169 to 171 °C
O=Cc1ccc(-c2nn(-c3ccccc3)cc2C=O)o1 | 146 to 148 °C
COC(=O)c1cc(C(=O)OC)cc(S(=O)(=O)Cl)c1 | 105 to 107 °C
CCOC(=O)c1c(C2CC2)csc1N | 70 to 72 °C
Cc1sc2ncnc(N)c2c1C | 257 to 259 °C
CCOc1cc2c(c3[nH]c(C(=O)O)cc13)OC(C)C2 (configuration not stated) | 226 to 228 °C
O=C1COc2cc([N+](=O)[O-])c(F)cc2N1 | 221 to 223 °C
Cc1noc(C(F)F)c1C(=O)O | 134 to 136 °C
O=S(=O)(c1ccc(N2CCNCC2)nc1)N1CCOCC1 | 184 to 186 °C
N#Cc1cc(C(N)=O)c[nH]1 | 245 to 247 °C
Clc1cc(NCC2CC2)ncn1 | 98 to 100 °C
CCC(C)C(=O)NN (configuration not stated) | 88 to 90 °C
Cc1cc(C)c(S(=O)(=O)NCCC(=O)O)c(C)c1 | 118 to 120 °C
O=C(O)c1cc(S(=O)(=O)N2CCOCC2)ccc1O | 234 to 236 °C
CNC(=O)CC(N)=S | 133 to 135 °C
OC(c1ccccc1)C1CCCCN1 (configuration not stated) | 136 to 138 °C
O=c1[nH]cnc2ccsc12 | 219 to 221 °C
Cc1nc2ccccc2c(=O)n1-c1ccc(Br)cc1 | 176 to 178 °C
O=C(O)C=Cc1cn(-c2ccccc2)nc1-c1ccccc1 | 207 to 209 °C
COC(=O)c1ncsc1S(N)(=O)=O | 155 to 157 °C
CC(C)(C)OC(=O)NCCCC(=O)NN | 114 to 116 °C

SMILES | melting point
CC(C)(C)OC(=O)N1CCN(S(=O)(=O)C2CNC2)CC1 | 132 to 134 °C
O=C(O)C1C2C3CCC(C3)C12 (configuration not stated) | 96 to 98 °C
Sc1nnc(-c2ccc(Cl)cc2)n1Cc1ccco1 | 117 to 119 °C
O=C(O)c1cc(S(=O)(=O)Cl)cs1 | 139 to 141 °C
CC(=O)NNC(=O)C(C)Cl (configuration not stated) | 156 to 158 °C
CCN1CCN(c2ccccc2N)CC1 | 39 to 43 °C
C=CCn1c(S)nc2sccc2c1=O | 212 to 214 °C
Cc1ccc(C2CNCCO2)c(C)c1 (configuration not stated) | 49 to 51 °C
NC(=NO)c1cnccn1 | 182 to 184 °C
O=C(c1cnc(Cl)c(Cl)c1)N1CCCCC1 | 78 to 80 °C
CC(C)(C)OC(=O)NNCCS(C)(=O)=O | 105 to 107 °C
CC(=O)OCC(N)=S | 75 to 77 °C
O=S(=O)(c1ccc(F)cc1)N1CCNCC1 | 112 to 114 °C
NNC(=O)c1csc(N2CCOCC2)n1 | 168 to 170 °C
CCOC(=O)c1c(NC(=O)CCl)sc(C(C)=O)c1C | 176 to 178 °C
NCCc1cc2ccccc2[nH]1 | 95 to 97 °C
CC1(C)NC(=O)N=C1N | 259 to 261 °C
Nc1cc2c(cc1Cl)NC(=O)CO2 | 227 to 229 °C
COC(=O)c1sc2nc(C)nc(Cl)c2c1C | 149 to 151 °C
Cc1nc(S(=O)(=O)N2CCC(C(=O)O)CC2)cn1C | 262 to 264 °C
COc1ccc(S(=O)(=O)N2CCNCC2)cc1OC | 145 to 147 °C

— a melting point compilation (Tetko et al.)
